Experimental data published in patent publication US20260315487A1, “IKK-ALPHA INHIBITORS” (Cancer Research Technology Limited, priority 2023, published 2026).

Experiments:
[1] = target: T1, IKKα (Homo sapiens, UniProt O15111); assay: in-house DELFIA kinase assay, IKKα; assay type: biochemical
T1 sequence (O15111 1-745): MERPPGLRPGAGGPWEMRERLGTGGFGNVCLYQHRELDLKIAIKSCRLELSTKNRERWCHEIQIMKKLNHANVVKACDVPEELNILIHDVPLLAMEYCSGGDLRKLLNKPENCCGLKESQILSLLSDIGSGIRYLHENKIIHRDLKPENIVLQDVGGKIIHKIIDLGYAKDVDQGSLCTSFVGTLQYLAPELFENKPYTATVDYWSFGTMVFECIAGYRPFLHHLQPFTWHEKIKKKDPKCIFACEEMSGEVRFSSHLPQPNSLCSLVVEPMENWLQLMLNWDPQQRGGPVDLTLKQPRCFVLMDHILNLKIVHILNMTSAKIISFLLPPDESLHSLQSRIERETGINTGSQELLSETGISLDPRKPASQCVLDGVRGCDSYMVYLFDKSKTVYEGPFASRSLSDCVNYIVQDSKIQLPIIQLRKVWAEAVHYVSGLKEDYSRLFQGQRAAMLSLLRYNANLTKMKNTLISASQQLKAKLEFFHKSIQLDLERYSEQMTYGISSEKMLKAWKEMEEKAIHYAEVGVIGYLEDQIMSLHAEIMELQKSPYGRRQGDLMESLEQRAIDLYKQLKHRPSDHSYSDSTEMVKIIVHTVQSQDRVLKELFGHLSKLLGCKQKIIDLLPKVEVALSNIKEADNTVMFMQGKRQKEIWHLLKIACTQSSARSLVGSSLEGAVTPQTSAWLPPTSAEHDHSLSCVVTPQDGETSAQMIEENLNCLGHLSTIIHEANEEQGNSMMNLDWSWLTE
Description: To examine the pyrrolo[2,3 -b]pyridines as an alternative scaffold, we adopted the AIPP core because it had similar dimensions to 1 SU909, with HBD/HBA motifs positioned at the scaffold extremities to interact with both the hinge region and the G-loop wall of IKKα, a rationale we had previously proposed as the basis for imparting selectivity. A preliminary set of AIPP derivatives was designed to explore its utility as an IKK-targeting scaffold, whilst incorporating additional functionality through which to introduce selectivity for the IKKα isoform (2-4 SU1087, SU1266 and SU1253; FIG. 3). This was achieved by initially adopting two different approaches: either appending a hydrophobic moiety to the pyrrolo[2,3 -b]pyridine motif as a fused form to afford the tricyclic derivatives 2 and 3 SU1266 and SU1087, or as a phenyl substituent to introduce flexibility with the central pyrrolo[2,3 -b]pyridine moiety in 4 SU1253 . […] The pyrrolo[2,3 -b]pyridine was bound to the hinge region in the classical HBA/HBD motif with the GK+3 NH and C═O backbone, whilst the aminoindazole projected towards the top of the pocket to interact with the G-loop (FIG. 4A). […] In both isoforms, the 2 -phenyl moiety was oriented out from the hinge towards the exposed solvent area.

[2] = target: T2, IKKβ (Homo sapiens, UniProt O14920); assay: in-house DELFIA kinase assay, IKKβ; assay type: biochemical
T2 sequence (O14920 1-756): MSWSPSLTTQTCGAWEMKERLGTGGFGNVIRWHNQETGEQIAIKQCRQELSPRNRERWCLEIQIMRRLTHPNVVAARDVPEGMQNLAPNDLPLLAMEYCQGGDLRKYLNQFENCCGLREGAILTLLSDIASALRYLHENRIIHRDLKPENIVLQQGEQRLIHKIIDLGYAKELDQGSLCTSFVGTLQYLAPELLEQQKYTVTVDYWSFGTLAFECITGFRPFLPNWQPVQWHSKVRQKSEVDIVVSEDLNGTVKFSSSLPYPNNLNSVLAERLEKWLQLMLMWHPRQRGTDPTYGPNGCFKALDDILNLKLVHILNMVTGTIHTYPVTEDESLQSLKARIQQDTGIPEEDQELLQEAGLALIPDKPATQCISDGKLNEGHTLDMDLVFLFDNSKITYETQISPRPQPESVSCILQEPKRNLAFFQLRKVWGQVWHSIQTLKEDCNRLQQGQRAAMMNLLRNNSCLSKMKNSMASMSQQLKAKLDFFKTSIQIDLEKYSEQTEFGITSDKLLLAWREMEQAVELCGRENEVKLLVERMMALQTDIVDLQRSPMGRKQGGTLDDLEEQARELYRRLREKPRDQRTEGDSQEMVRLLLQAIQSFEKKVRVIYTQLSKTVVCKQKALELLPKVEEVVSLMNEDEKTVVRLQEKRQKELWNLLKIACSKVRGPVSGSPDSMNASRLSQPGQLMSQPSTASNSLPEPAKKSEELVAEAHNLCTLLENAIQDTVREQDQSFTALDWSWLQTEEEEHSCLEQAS
Description: To examine the pyrrolo[2,3 -b]pyridines as an alternative scaffold, we adopted the AIPP core because it had similar dimensions to 1 SU909, with HBD/HBA motifs positioned at the scaffold extremities to interact with both the hinge region and the G-loop wall of IKKα, a rationale we had previously proposed as the basis for imparting selectivity. A preliminary set of AIPP derivatives was designed to explore its utility as an IKK-targeting scaffold, whilst incorporating additional functionality through which to introduce selectivity for the IKKα isoform (2-4 SU1087, SU1266 and SU1253; FIG. 3). This was achieved by initially adopting two different approaches: either appending a hydrophobic moiety to the pyrrolo[2,3 -b]pyridine motif as a fused form to afford the tricyclic derivatives 2 and 3 SU1266 and SU1087, or as a phenyl substituent to introduce flexibility with the central pyrrolo[2,3 -b]pyridine moiety in 4 SU1253 .

| Ki [1] [nM] | Ki [2] [nM] | IKKβ inhibition, in words [2] | SMILES |
| --- | --- | --- | --- |
| 2 | 77 |  | Nc1n[nH]c2ccc(-c3ccnc4[nH]c5c(c34)CCCC5)cc12 [2 SU1266, 5-(6,7,8,9 -Tetrahydro-5 H-pyrido[2,3-b]indol-4-yl)-1 H-indazol-3-amine] |
| 3 | 5 |  | Nc1n[nH]c2ccc(-c3ccnc4[nH]c5ccccc5c34)cc12 [3 SU1087, 5-(9 H-pyrido[2,3-b]indol-4-yl)-1 H-indazol-3-amine] |
| 4 | 42 |  | Nc1n[nH]c2ccc(-c3ccnc4[nH]c(-c5ccccc5O)cc34)cc12 [5a SU1354, 2-(4-(3 -Amino-1 H-indazol-5-yl)-1 H-pyrrolo[2,3-b]pyridin-2-yl)phenol] |
| 25 | 149 |  | Nc1n[nH]c2ccc(-c3ccnc4[nH]c(-c5cccc(S(=O)(=O)N6CCOCC6)c5)cc34)cc12 [5aa SU1311, 5-(2-(3-(Morpholinosulfonyl)phenyl)-1 H-pyrrolo[2,3-b]pyridin-4-yl)-1 H-indazol-3-amine] |
| 8 | 86 |  | CCOc1ccccc1-c1cc2c(-c3ccc4[nH]nc(N)c4c3)ccnc2[nH]1 [5b SU1368, 5-(2-(2 -Ethoxyphenyl)-1 H-pyrrolo[2,3-b]pyridin-4-yl)-1 H-indazol-3-amine] |
| 5 | 28 |  | Nc1cccc(-c2cc3c(-c4ccc5[nH]nc(N)c5c4)ccnc3[nH]2)c1 [5c SU1304, 5-(2-(3 -Aminophenyl)-1 H-pyrrolo[2,3-b]pyridin-4-yl)-1 H-indazol-3-amine] |
| 5 | 26 |  | Nc1n[nH]c2ccc(-c3ccnc4[nH]c(-c5cccc(O)c5)cc34)cc12 [5d SU1348, 3-(4-(3 -Amino-1 H-indazol-5-yl)-1 H-pyrrolo[2,3-b]pyridin-2-yl)phenol] |
| 5 | 40 |  | COc1cccc(-c2cc3c(-c4ccc5[nH]nc(N)c5c4)ccnc3[nH]2)c1 [5e SU1332, 5-(2-(3 -Methoxyphenyl)-1 H-pyrrolo[2,3-b]pyridin-4-yl)-1 H-indazol-3-amine] |
| 4 | 42 |  | Nc1n[nH]c2ccc(-c3ccnc4[nH]c(-c5cc(O)cc(F)c5)cc34)cc12 [5f SU1384, 3-(4-(3 -Amino-1 H-indazol-5-yl)-1 H-pyrrolo[2,3-b]pyridin-2-yl)-5-fluorophenol] |
| 3 | 32 |  | COc1cc(F)cc(-c2cc3c(-c4ccc5[nH]nc(N)c5c4)ccnc3[nH]2)c1 [5g SU1373, 5-(2-(3 -Fluoro-5-methoxyphenyl)-1 H-pyrrolo[2,3-b]pyridin-4-yl)-1 H-indazol-3-amine] |
| 8 | 168 |  | Nc1n[nH]c2ccc(-c3ccnc4[nH]c(-c5cccc(C(=O)O)c5)cc34)cc12 [5h SU1303, 3-(4-(3 -Amino-1 H-indazol-5-yl)-1 H-pyrrolo[2,3-b]pyridin-2-yl)benzoic acid] |
| 5 | 159 |  | NC(=O)c1cccc(-c2cc3c(-c4ccc5[nH]nc(N)c5c4)ccnc3[nH]2)c1 [5i SU1294, 3-(4-(3 -Amino-1 H-indazol-5-yl)-1 H-pyrrolo[2,3-b]pyridin-2-yl)benzamide] |
| 3 | 109 |  | CS(=O)(=O)Nc1cccc(-c2cc3c(-c4ccc5[nH]nc(N)c5c4)ccnc3[nH]2)c1 [5j SU1288, N-(3-(4-(3 -Amino-1 H-indazol-5-yl)-1 H-pyrrolo[2,3-b]pyridin-2-yl)phenyl)methanesulfonamide] |
| 3 | 36 |  | CS(=O)(=O)c1cccc(-c2cc3c(-c4ccc5[nH]nc(N)c5c4)ccnc3[nH]2)c1 [5k SU1374, 5-(2-(3-(Methylsulfonyl)phenyl)-1 H-pyrrolo[2,3-b]pyridin-4-yl)-1 H-indazol-3-amine] |
| 6 | 25 | good IKKβ inhibition | COCCC(=O)Nc1cccc(-c2cc3c(-c4ccc5[nH]nc(N)c5c4)ccnc3[nH]2)c1 [5l SU1317, N-(3-(4-(3 -Amino-1 H-indazol-5-yl)-1 H-pyrrolo[2,3-b]pyridin-2-yl)phenyl)-3-methoxypropanamide] |
| 15 | 107 | good IKKβ inhibition | COCCNC(=O)c1cccc(-c2cc3c(-c4ccc5[nH]nc(N)c5c4)ccnc3[nH]2)c1 [5m SU1316, 3-(4-(3 -Amino-1 H-indazol-5-yl)-1 H-pyrrolo[2,3-b]pyridin-2-yl)-N-(2-methoxyethyl)benzamide] |
| 35 | 470 | lowest activity against IKKβ | Nc1n[nH]c2ccc(-c3ccnc4[nH]c(-c5cccc(CNc6ccccc6)c5)cc34)cc12 [5p SU1549, 5-(2-(3-((Phenylamino)methyl)phenyl)-1 H-pyrrolo[2,3-b]pyridin-4-yl)-1 H-indazol-3-amine] |
| 57 | 1060 | lowest activity against IKKβ | Nc1n[nH]c2ccc(-c3ccnc4[nH]c(-c5ccccc5OCc5ccccc5)cc34)cc12 [5q SU1353, 5-(2-(2-(Benzyloxy)phenyl)-1 H-pyrrolo[2,3-b]pyridin-4-yl)-1 H-indazol-3-amine] |
| 10 | 1050 | lowest activity against IKKβ | Cc1ccc(S(=O)(=O)Nc2cccc(-c3cc4c(-c5ccc6[nH]nc(N)c6c5)ccnc4[nH]3)c2)cc1 [5t SU1278, N-(3-(4-(3 -Amino-1 H-indazol-5-yl)-1 H-pyrrolo[2,3-b]pyridin-2-yl)phenyl)-4-methylbenzensulfonamide] |
| 24 | 215 |  | CN1CCN(C(=O)c2cccc(-c3cc4c(-c5ccc6[nH]nc(N)c6c5)ccnc4[nH]3)c2)CC1 [5v SU1312, (3-(4-(3 Amino-1 H-indazol-5-yl)-1 H-pyrrolo[2,3-b]pyridin-2-yl)phenyl)(4-methylpiperazin-1-y)methanone] |
| 16 | 402 | lowest activity against IKKβ | Nc1n[nH]c2ccc(-c3ccnc4[nH]c(-c5cccc(OCc6ccccn6)c5)cc34)cc12 [5w SU1324, 5-(2-(3-(pyridin-2-ylmethoxy)phenyl)-1 H-pyrrolo[2,3-b]pyridin-4-yl)-1 H-indazol-3-amine] |
| 8 | 122 | good IKKβ inhibition | Nc1n[nH]c2ccc(-c3ccnc4[nH]c(-c5cccc(OCC6CCOCC6)c5)cc34)cc12 [5x SU1335, 5-(2-(3-((Tetrahydro-2 H-pyran-4-yl)methoxy)phenyl)-1 H-pyrrolo[2,3-b]pyridin-4-yl)-1 H-indazol-3-amine] |
